Source: PubChem BioAssay AID1996
In brackets after ≈: the same amount, converted by molar mass.

Conditions: buffer; pH 7.4; 200.0 µM

Row | Compound | solubility kinetic
1 | Cc1cc(=O)[nH]c2ccc(S(=O)(=O)Nc3ccccc3)cc12 | 3.4 µg/mL (≈ 10.8 µM)
2 | O=C(O)CCCN1C(=O)c2ccccc2Sc2ncccc21 | > 47.2 µg/mL
3 | Cc1ccccc1NS(=O)(=O)c1cccc2nsnc12 | > 45.8 µg/mL
4 | O=C(COC(=O)/C=C/c1ccc(F)cc1)NC1CCCCCC1 | 3.7 µg/mL (≈ 11.6 µM)
5 | CC(=O)c1cccc(Nc2c([N+](=O)[O-])c(=O)oc3ccccc23)c1 | 0.9 µg/mL (≈ 2.78 µM)
6 | C/C(=C\c1ccc2c(c1)OCO2)C(=O)c1c(C)cc(C)[nH]c1=O | > 46.7 µg/mL
7 | Cc1cccc2sc(NS(=O)(=O)c3ccccc3)nc12 | > 45.7 µg/mL
8 | COc1ccc(S(=O)(=O)NC(C)C(=O)NCc2ccncc2)cc1C (stereo not given) | 51.9 µg/mL (≈ 143 µM)
9 | O=C(O)CSc1ccc(S(=O)(=O)N2CCCC2)cn1 | > 45.4 µg/mL
10 | Cc1onc(-c2ccccc2Cl)c1C(=O)N1CCCCCC1 | > 47.8 µg/mL
11 | O=C(NCCOc1ccc(Cl)cc1)C(=O)NCC1CCCO1 (stereo not given) | 33.6 µg/mL (≈ 103 µM)
12 | Cc1ccc2nc(Br)c3c(c2c1)OC(CBr)C3 (stereo not given) | 9.7 µg/mL (≈ 27.2 µM)
13 | C=CCN1CCN(C(=O)c2ccc(-c3ccccc3)cc2)CC1 | 32.3 µg/mL (≈ 105 µM)
14 | Cc1ccccc1C(=O)Nc1ccccc1C(=O)NC1CC1 | > 44.2 µg/mL
15 | CCN(Cc1nc(-c2ccccc2)no1)C(=O)c1ccc2c(c1)OCO2 | 36.5 µg/mL (≈ 104 µM)
16 | CCCOc1ccc(C(=O)NCCC(=O)NCCCC(=O)O)cc1 | > 50.5 µg/mL
17 | O=C(Nc1ccc(CN2CCOCC2)cc1)c1ccc(F)cc1 | > 47.2 µg/mL
18 | N#Cc1ccc(NC(=O)CN2C(=O)NC3(CCCC3)C2=O)cc1Cl | 46.1 µg/mL (≈ 133 µM)
19 | CCOc1ccc(NC(=O)c2c3c(nc4ccccc24)CCC3)cc1 | 1.4 µg/mL (≈ 4.21 µM)
20 | COc1ncnc(-c2ccccc2)c1-c1ccccc1 | 14.9 µg/mL (≈ 56.8 µM)
21 | Cc1cc(C)cc(NC(=S)N(CCN(C)C)Cc2cccs2)c1 | 43.7 µg/mL (≈ 126 µM)
22 | Cc1ccc(-c2noc(-c3c(C)noc3C)n2)cc1 | < 0.2 µg/mL
23 | O=C(O)C1CCCCC1C(=O)Nc1ccc2c(c1)OCO2 (stereo not given) | > 43.7 µg/mL
24 | O=C(O)c1nn2cc(CCO)cnc2c1Cl | > 36.2 µg/mL

Row | Compound | solubility kinetic
25 | O=C(NCCO)Nc1ccc(Cl)cc1 | 29 µg/mL (≈ 135 µM)
26 | Cn1c(=O)n(Cc2ccccc2Cl)c(=O)c2c1[nH]c(=S)n2C | > 50.5 µg/mL
27 | COCC(C)Nc1nc(C)c(C(C)=O)s1 (stereo not given) | > 34.2 µg/mL
28 | O=C(O)c1c(NC(=O)N2CCCC2)sc2c1CCCC2 | > 44.2 µg/mL
29 | O=C(Nc1ccc(Cl)c(S(=O)(=O)N2CCOCC2)c1)c1cc2ccccc2oc1=O | 2.4 µg/mL (≈ 5.35 µM)
30 | Cc1ccnc(NC(=O)COc2ccc(Cl)cc2)n1 | 9.7 µg/mL (≈ 34.9 µM)
31 | NC(=O)CN(C/C=C/c1ccccc1)C/C=C/c1ccccc1 | 7.4 µg/mL (≈ 24.2 µM)
32 | O=C(COc1cccnc1[N+](=O)[O-])N1CCC(Cc2ccccc2)CC1 | 51.9 µg/mL (≈ 146 µM)
33 | COC(=O)C1=C(N)Oc2c(oc(CO)cc2=O)C1c1ccc(F)cc1 (stereo not given) | > 52.1 µg/mL
34 | Cc1sc2nc(SCC(=O)O)[nH]c(=O)c2c1C | > 40.5 µg/mL
35 | CC(=O)Nc1ccccc1OCc1cnc(Cl)s1 | > 42.4 µg/mL
36 | CCOC(=O)N1CCN(S(=O)(=O)c2ccc(Cl)cc2)CC1 | 48.4 µg/mL (≈ 145 µM)
37 | CNC(=O)C(=O)Nc1cc2c3c(c1)CCC(=O)N3CCC2 | 19 µg/mL (≈ 66.1 µM)
38 | O=C1NC(=Nc2ccccc2Br)SC1(CO)CO | > 49.7 µg/mL
39 | O=C1c2ccccc2S(=O)(=O)N1Cc1c(F)cccc1Cl | < 0.7 µg/mL
40 | Cc1c(NS(=O)(=O)c2cc(C(=O)NCc3cccnc3)ccc2Cl)c(=O)n(-c2ccccc2)n1C | > 76.8 µg/mL
41 | CC1CC(C)(C)NC(=S)N1CCCC(=O)Nc1ccc(F)cc1 (stereo not given) | 42.8 µg/mL (≈ 127 µM)
42 | COc1nc(OCC#N)nc(N2CCCCC2)n1 | 31.6 µg/mL (≈ 127 µM)
43 | Cc1cc(=O)[nH]c(SCC(=O)Nc2nonc2C)n1 | > 42.2 µg/mL
44 | O=C(COc1ccc(S(=O)(=O)N2CCOCC2)cc1)Nc1ccc(Br)cc1 | 5.4 µg/mL (≈ 11.9 µM)
45 | CCCCc1ccc(NC(=O)c2cnccn2)cc1 | 4 µg/mL (≈ 15.7 µM)
46 | CC(NC(=O)COC(=O)c1cc(=O)c2ccccc2o1)c1ccccc1 (stereo not given) | > 52.7 µg/mL
47 | COCCn1c(=O)[nH]c2cc(C(=O)Nc3cccc(F)c3)ccc2c1=O | 6.2 µg/mL (≈ 17.4 µM)
48 | CN(c1ccccc1)c1nc(N)c([N+](=O)[O-])c(NCc2ccccc2)n1 | < 0.1 µg/mL

Row | Compound | solubility kinetic
49 | O=C(c1cccc(Cl)c1)N1CCN(c2ncccn2)CC1 | > 45.4 µg/mL
50 | COc1ccc(C(=O)NCC(c2ccco2)N2CCOCC2)cc1OC (stereo not given) | > 54.1 µg/mL
51 | CN(Cc1cccc(F)c1)C(=O)c1ccc2c(=O)n3c(nc2c1)CCC3 | 49.8 µg/mL (≈ 142 µM)
52 | O=[N+]([O-])c1ccccc1OCCCOc1cccc2cccnc12 | 18.2 µg/mL (≈ 56.1 µM)
53 | CC(C)(C)c1ccccc1NC(=S)NC1CCCC1 | 30.9 µg/mL (≈ 112 µM)
54 | Cl.Nc1ncnc2sc3c(c12)CCNC3 | > 36.4 µg/mL
55 | CCN(Cc1ccccc1)Cc1nc(CCc2ccccc2)no1 | 1.4 µg/mL (≈ 4.36 µM)
56 | Cc1ccc(NC(=O)CSc2nc(C)c(Cc3ccccc3)c(=O)[nH]2)cc1 | 1.4 µg/mL (≈ 3.69 µM)
57 | O=C(CN1CCCCC1)NNC(=O)c1ccc([N+](=O)[O-])cc1 | > 45.9 µg/mL
58 | OC1=C(O)c2nc3cc(C(F)(F)F)ccc3nc21 | > 38.1 µg/mL
59 | Cc1ccc(C(C)C)c(OCC(=O)NC2CCN(C)CC2)c1 | > 45.7 µg/mL
60 | CCC(C)c1ccccc1NC(=O)c1[nH]c(C)c(C(C)=O)c1C (stereo not given) | 2 µg/mL (≈ 6.4 µM)
61 | COc1ccc(C(=O)NCCc2ccccc2)cc1OC | 40.1 µg/mL (≈ 141 µM)
62 | CCCCOc1ccc(C(=O)N=c2sccn2C)cc1OC | 35.7 µg/mL (≈ 111 µM)
63 | Cc1ccc(C(=O)NCCCNC(=O)c2ccc(Cl)cc2)cn1 | 36.6 µg/mL (≈ 110 µM)
64 | O=C(CCc1ccccc1)NC1CCS(=O)(=O)C1 (stereo not given) | > 40.1 µg/mL
65 | O=c1c2ccccc2[nH]c(=S)n1CCN1CCCCC1 | > 43.4 µg/mL
66 | Cc1ccc(C)c(-c2cc(C(=O)NC3CC3)c3ccccc3n2)c1 | 39.6 µg/mL (≈ 125 µM)
67 | O=C(COC(=O)c1cc(F)cc(F)c1)Nc1cccnc1Cl | 10.9 µg/mL (≈ 33.4 µM)
68 | COc1ccc(OC)c(C(C)NC(=S)NC2CCCCC2)c1 (stereo not given) | 28 µg/mL (≈ 86.8 µM)
69 | O=C1c2ccccc2-c2ccc(C(=O)N3CCCCC3)cc21 | 19 µg/mL (≈ 65.2 µM)
70 | COc1cc(N)c(Cl)cc1C(=O)OCC(=O)NCC1CCCCC1 | 4.8 µg/mL (≈ 13.5 µM)
71 | Nc1nc(-c2ccc(Oc3ccccc3)cc2)cs1 | 12.8 µg/mL (≈ 47.7 µM)
72 | Cc1ccc(-c2nc(NCCCO)c3ccccc3n2)cc1 | 37.3 µg/mL (≈ 127 µM)

Row | Compound | solubility kinetic
73 | Cc1ccc(CC(=O)O/N=C(\N)c2ccncc2)cc1 | 18.1 µg/mL (≈ 67.2 µM)
74 | Cc1cc(=O)[nH]c2c(C)cc(S(=O)(=O)Nc3ccc(O)cc3)cc12 | 49.7 µg/mL (≈ 144 µM)
75 | CC(C)Cn1c(=S)[nH]c2cc(Cl)ccc21 | 18.5 µg/mL (≈ 76.8 µM)
76 | COc1ccccc1C(=O)OC(C)CN1CCN(C)CC1.Cl (stereo not given) | > 49.3 µg/mL
77 | O=S(=O)(Nc1ccc(N2CCCCC2)cc1)c1ccc(F)cc1 | 9.5 µg/mL (≈ 28.4 µM)
78 | O=C(CN1CCN(Cc2ccccc2)CC1)Nc1nc2ccccc2s1 | 47.4 µg/mL (≈ 129 µM)
79 | O=C(COc1ccccc1[N+](=O)[O-])N1CCCc2ccccc21 | > 46.8 µg/mL
80 | Cc1cc(NC(=O)COc2c(C)cccc2C)no1 | 6.9 µg/mL (≈ 26.5 µM)
81 | NC(=O)C1CCN(CC(O)COCc2ccccc2Cl)CC1 (stereo not given) | > 49 µg/mL
82 | CCOc1ccccc1NC(=O)c1nc(-c2ccccc2)oc1C | 0.9 µg/mL (≈ 2.79 µM)
83 | CC(NC(=O)Nc1ccccc1Cl)c1ccc2c(c1)OCO2 (stereo not given) | < 0.3 µg/mL
84 | Cc1sc(NC(=S)NC(=O)c2ccco2)c(C#N)c1C | 1.1 µg/mL (≈ 3.6 µM)
85 | CC(C)(CO)Nc1ncnc2onc(-c3ccc(F)cc3)c12 | > 45.3 µg/mL
86 | Cc1ccc(OCC(=O)NCCCNC(=O)c2ccco2)cc1 | > 47.5 µg/mL
87 | Cl.O=C(NCCN1CCCC1)c1ccc(Cl)cc1Cl | > 48.5 µg/mL
88 | Cc1cc(CSCc2ccc(Cl)cc2)no1 | 2.2 µg/mL (≈ 8.67 µM)
89 | Cc1ccc(OCC(O)CN2CCCC2)cc1 (stereo not given) | > 35.3 µg/mL
90 | O=C(COC(=O)c1ccccc1O)NCc1ccccc1Cl | 5 µg/mL (≈ 15.6 µM)
91 | Cn1ccnc1SCC(=O)Nc1ccc2c(c1)OCO2 | > 43.7 µg/mL
92 | CCCCn1c(SCC(=O)N(C)C)nnc1-c1ccncc1 | > 47.9 µg/mL
93 | NS(=O)(=O)c1ccc(CNC(=S)NC2CCCCC2)cc1 | 47.9 µg/mL (≈ 146 µM)
94 | CCOCCCNC(=O)/C(C#N)=C/c1ccc(C(=O)OC)cc1 | 19.1 µg/mL (≈ 60.4 µM)
95 | CN(C)C(=O)c1coc2nc3ccccc3nc12 | 4 µg/mL (≈ 16.6 µM)
96 | O=C(c1ccco1)N1CCN(C2c3ccccc3-c3ccccc32)CC1 | 1 µg/mL (≈ 2.9 µM)

Row | Compound | solubility kinetic
97 | CCOC(=O)C1=C(N)Oc2cc(O)ccc2C1c1ccc(F)cc1F (stereo not given) | < 0.7 µg/mL
98 | Cc1cc(N2CCCC2)nc2c(C)cccc12 | 7.2 µg/mL (≈ 31.8 µM)
99 | CS(=O)(=O)N1CCc2cc(C(=O)Nc3ccccc3)ccc21 | 2.3 µg/mL (≈ 7.27 µM)
100 | COc1ccccc1NC(=O)c1ccc(-c2ccccc2[N+](=O)[O-])o1 | 1.6 µg/mL (≈ 4.73 µM)
101 | O=C(NCC1CCCO1)c1ccc(COc2ccccc2)o1 (stereo not given) | > 45.2 µg/mL
102 | O=c1[nH]cc(N(CCO)CCO)c(=O)[nH]1 | > 32.3 µg/mL
103 | O=C1CCC/C1=C\Nc1ccc(Cl)c([N+](=O)[O-])c1 | 7.2 µg/mL (≈ 27 µM)
104 | Fc1cc2[nH]c(=S)[nH]c2cc1Cl | 26.5 µg/mL (≈ 131 µM)
105 | O=C(CSc1ccc(Cl)cc1)NC(=O)c1ccccc1 | 6.4 µg/mL (≈ 20.9 µM)
106 | COc1ccc(C(=O)c2sc(Nc3ccccc3)nc2N)cc1 | 2.2 µg/mL (≈ 6.76 µM)
107 | CCOC(=O)c1sc(=NC(=O)/C=C/c2ccccc2)n(C)c1C | < 0.4 µg/mL
108 | Cc1ccccc1NC(=O)CSc1nc2scc(C)c2c(=O)[nH]1 | 1.4 µg/mL (≈ 4.05 µM)
109 | CCOC(=O)Cn1cc(C#N)c2cccc(CC)c21 | 35.3 µg/mL (≈ 138 µM)
110 | CCOC(=O)c1c(O)c(Cl)c(C)[nH]c1=O | > 34.7 µg/mL
111 | COc1ccc(Cl)cc1NC(=O)CNc1ccccc1N1CCOCC1 | < 0.3 µg/mL
112 | Cc1ccc(N(C)S(=O)(=O)c2csc(C(N)=O)c2)cc1C | 43.8 µg/mL (≈ 135 µM)
113 | Cc1cc(-c2onc(C)c2C(=O)Oc2ccc(Cl)cc2)no1 | 0.5 µg/mL (≈ 1.57 µM)
114 | CCC1C(=O)NCCN1Cc1nc(-c2ccc(C)s2)oc1C (stereo not given) | 39.3 µg/mL (≈ 123 µM)
115 | CC1CC(C)CN(CCOc2cccc3ccccc23)C1 (stereo not given) | 34.1 µg/mL (≈ 120 µM)
116 | O=C(O)CCc1nc2cc(Cl)ccc2n(Cc2ccccc2)c1=O | > 51.4 µg/mL
117 | CN(C)c1ccc(C(=O)OCc2cc(=O)n3ccsc3n2)cc1 | 3.8 µg/mL (≈ 11.5 µM)
118 | FC(F)(F)c1cccc(-c2nc(-c3ccncc3)no2)c1 | 0.4 µg/mL (≈ 1.37 µM)
119 | CC(C)CN(C(=O)CSc1nc2ccccc2c(=O)[nH]1)c1c(N)n(CC(C)C)c(=O)[nH]c1=O | 10.5 µg/mL (≈ 22.2 µM)
120 | O=C(CSc1nccc(=O)[nH]1)c1c[nH]c2ccccc12 | > 42.8 µg/mL
